Assay results published in patent publication US11046699B2, “Pyrazolo-pyrimidin-amino-cycloalkyl compounds and their therapeutic uses” (RAPT THERAPEUTICS, INC., priority 2018, dated 2021).

molecular target: GCN2 (Homo sapiens, UniProt Q9P2K8); experiment: GCN2 enzymatic endpoint assay: phosphorylation of GFP-eIF2α measured by TR-FRET (Lanthascreen); type: biochemical; conditions: GCN2 biochemical IC50; 4 nM GCN2, 2 μM ATP, 80 nM GFP-eIF2α, 90 min RT; read-out: GCN2 activity
Method: The Enzymatic assay was run as an endpoint assay to quantify the activity of the serine/threonine GCN2 kinase by way of measuring phosphorylation of its natural substrate, eiF2α.
The enzymatic reaction was initiated by incubating with 2 μM ATP and 80 nM of GFP labeled eiF2a substrate at room temperature and then stopped after 90 minutes with EDTA. The amount of phosphorylated eIF2α is determined by TR-FRET (Lanthascreen). A terbium labeled antibody associates with the phosphorylated substrate resulting in an increased TR-FRET value. Activity was calculated as the ratio of the acceptor (fluorescein) signal at 520 nm wavelength to the donor (terbium) signal 495 nm. The amount of antibody that is bound to the tracer is directly proportional to the amount of phosphorylated substrate present, and in this manner, kinase activity can be detected and measured by an increase in the TR-FRET value.
Compound addition by D300
5 μL enzyme solution in assay buffer
5 μL substrate/ATP mixture in assay buffer
5 μL stop/detection mix in antibody dilution buffer

Sequence of GCN2 (Q9P2K8 whole entry): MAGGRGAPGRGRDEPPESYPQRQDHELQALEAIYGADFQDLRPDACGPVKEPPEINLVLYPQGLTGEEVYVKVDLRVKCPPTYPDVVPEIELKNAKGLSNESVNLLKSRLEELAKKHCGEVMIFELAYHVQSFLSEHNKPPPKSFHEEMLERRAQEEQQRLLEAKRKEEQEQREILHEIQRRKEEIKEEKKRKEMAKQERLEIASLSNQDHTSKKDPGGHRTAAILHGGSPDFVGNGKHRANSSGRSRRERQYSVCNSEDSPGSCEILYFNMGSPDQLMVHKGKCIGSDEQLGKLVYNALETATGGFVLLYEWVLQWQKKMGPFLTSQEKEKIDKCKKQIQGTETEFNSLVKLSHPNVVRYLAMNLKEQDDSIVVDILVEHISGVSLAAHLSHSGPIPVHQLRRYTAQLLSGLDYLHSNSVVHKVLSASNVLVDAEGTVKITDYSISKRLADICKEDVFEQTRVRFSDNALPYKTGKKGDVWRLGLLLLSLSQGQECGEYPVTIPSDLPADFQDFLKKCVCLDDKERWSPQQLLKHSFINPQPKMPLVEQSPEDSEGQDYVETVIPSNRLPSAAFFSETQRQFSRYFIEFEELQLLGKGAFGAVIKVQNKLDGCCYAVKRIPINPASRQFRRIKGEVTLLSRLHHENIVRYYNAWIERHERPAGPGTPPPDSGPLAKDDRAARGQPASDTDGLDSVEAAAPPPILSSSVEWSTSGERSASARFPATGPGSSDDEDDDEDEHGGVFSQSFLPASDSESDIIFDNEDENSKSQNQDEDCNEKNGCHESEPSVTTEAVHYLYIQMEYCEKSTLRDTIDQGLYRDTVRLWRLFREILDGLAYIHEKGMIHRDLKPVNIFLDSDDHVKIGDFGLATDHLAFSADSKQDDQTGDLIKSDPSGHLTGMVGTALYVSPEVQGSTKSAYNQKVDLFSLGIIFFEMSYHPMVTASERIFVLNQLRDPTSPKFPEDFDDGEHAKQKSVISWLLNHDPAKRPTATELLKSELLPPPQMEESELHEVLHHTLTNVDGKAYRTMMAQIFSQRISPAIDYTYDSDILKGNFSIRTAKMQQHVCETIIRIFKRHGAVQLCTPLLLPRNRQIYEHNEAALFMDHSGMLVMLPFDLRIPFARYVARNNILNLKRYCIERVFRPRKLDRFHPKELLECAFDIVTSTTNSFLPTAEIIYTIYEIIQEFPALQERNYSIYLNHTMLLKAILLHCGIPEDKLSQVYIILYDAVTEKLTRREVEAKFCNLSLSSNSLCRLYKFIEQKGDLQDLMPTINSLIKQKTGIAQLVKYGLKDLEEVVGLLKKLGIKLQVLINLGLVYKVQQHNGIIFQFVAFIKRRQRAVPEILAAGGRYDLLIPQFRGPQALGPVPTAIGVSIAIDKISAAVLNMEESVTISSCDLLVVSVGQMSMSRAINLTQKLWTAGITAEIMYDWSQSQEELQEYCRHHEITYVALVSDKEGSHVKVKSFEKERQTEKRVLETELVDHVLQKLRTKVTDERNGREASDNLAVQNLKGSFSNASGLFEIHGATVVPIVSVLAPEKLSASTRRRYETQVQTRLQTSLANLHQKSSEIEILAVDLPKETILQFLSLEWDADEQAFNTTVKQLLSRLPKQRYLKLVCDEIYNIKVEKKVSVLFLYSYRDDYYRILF

Row | IC50 [nM] | Structure (SMILES)
1 | 25 to 200 | Brc1nn(-c2ccc3ncccc3c2)c2nc(N[C@@H]3CC[C@@H](c4ncc[nH]4)C3)ncc12 [Example 25, N-((1R,3R)-3-(1H-imidazol-2-yl)cyclopentyl)-3-bromo-1-(quinolin-6-yl)-1H-pyrazolo[3,4-d]pyrimidin-6-amine]
2 | < 25 | Cn1cnc2ccc(-n3nc(Br)c4cnc(N[C@@H]5CC[C@@](C)(O)C5)nc43)cc2c1=O [Example 70, 6-(3-bromo-6-(((1R,3R)-3-hydroxy-3-methylcyclopentyl)amino)-1H-pyrazolo[3,4-d]pyrimidin-1-yl)-3-methylquinazolin-4(3H)-one]
3 | < 25 | Cc1nnc(-c2ccc(-n3nc(Br)c4cnc(N[C@@H]5CC[C@](C(=O)N6CCNCC6)(C(C)C)C5)nc43)cc2CCC(N)=O)s1 [Example 28, 3-(5-(3-bromo-6-(((1R,3R)-3-isopropyl-3-(piperazine-1-carbonyl)cyclopentyl)amino)-1H-pyrazolo[3,4-d]pyrimidin-1-yl)-2-(5-methyl-1,3,4-thiadiazol-2-yl)phenyl)propanamide; 2,2,2-trifluoroacetic acid]
4 | 25 to 200 | CNC(=O)[C@@H]1CC[C@@H](Nc2ncc3c(Br)nn(-c4cc(F)c5ncccc5c4)c3n2)C1 [Example 8, (1R,3R)-3-((3-bromo-1-(8-fluoroquinolin-6-yl)-1H-pyrazolo[3,4-d]pyrimidin-6-yl)amino)-N-methylcyclopentane-1-carboxamide]
5 | 25 to 200 | CNC(=O)[C@]1(C)CC[C@@H](Nc2ncc3c(Br)nn(-c4ccc(-c5nnc(C)s5)c(CCC#N)c4)c3n2)C1 [Example 49, (1R,3R)-3-((3-bromo-1-(3-(2-cyanoethyl)-4-(5-methyl-1,3,4-thiadiazol-2-yl)phenyl)-1H-pyrazolo[3,4-d]pyrimidin-6-yl)amino)-N,1-dimethylcyclopentane-1-carboxamide]

same assay, conditions: tested as described in Example 77; compound and/or hydrochloride, dihydrochloride or trifluoroacetic acid salt; read-out: IC 50 Activity

Row | IC50 [nM] | Structure (SMILES)
6 | 25 to 200 | O=C(N[C@H]1C[C@H](O)C1)[C@@H]1CC[C@@H](Nc2ncc3c(Br)nn(-c4cc(F)c5ncccc5c4)c3n2)C1
7 | 25 to 200 | CNC(=O)[C@]1(C)CC[C@@H](Nc2ncc3c(Br)nn(-c4cc(Cl)cc(C(=O)N(C)C5CNC5)c4)c3n2)C1 [N-(azetidin-3-yl)-3-[3-bromo-6-[[(1R,3R)-3-methyl-3-(methylcarbamoyl)cyclopentyl]amino]pyrazolo[3,4-d]pyrimidin-1-yl]-5-chloro-N-methyl-benzamide]
8 | 25 to 200 | COCCO[C@@H]1CCN(C(=O)[C@@H]2CC[C@@H](Nc3ncc4c(Br)nn(-c5ccc6ncccc6c5)c4n3)C2)C1 [((1R,3R)-3-((3-bromo-1-(quinolin-6-yl)-1H-pyrazolo[3,4-d]pyrimidin-6-yl)amino)cyclopentyl)((R)-3-(2-methoxyethoxy)pyrrolidin-1-yl)methanone]
9 | 25 to 200 | O=C(NC1CCS(=O)(=O)CC1)[C@@H]1CC[C@@H](Nc2ncc3c(Br)nn(-c4ccc5ncccc5c4)c3n2)C1
10 | < 25 | CNC(=O)[C@]1(C)CC[C@@H](Nc2ncc3c(Br)nn(-c4cc(CC#N)c5ncccc5c4)c3n2)C1 [(1R,3R)-3-[[3-bromo-1-[8-(cyanomethyl)-6-quinolyl]pyrazolo[3,4-d]pyrimidin-6-yl]amino]-N,1-dimethyl-cyclopentane-carboxamide]
11 | 25 to 200 | CN1CCC2(CCN(C(=O)[C@@H]3CC[C@@H](Nc4ncc5c(Br)nn(-c6cc(F)c7ncccc7c6)c5n4)C3)C2)C1=O (stereo partly drawn) [7-((1R,3R)-3-((3-bromo-1-(8-fluoroquinolin-6-yl)-1H-pyrazolo[3,4-d]pyrimidin-6-yl)amino)cyclopentane-1-carbonyl)-2-methyl-2,7-diazaspiro[4.4]nonan-1-one]
12 | 25 to 200 | Cc1nnc(-c2ccc(-n3nc(Br)c4cnc(N[C@@H]5CC[C@@H](NC(=O)C6CC(C)(O)C6)C5)nc43)cc2)s1 (stereo partly drawn) [N-[(1R,3R)-3-[[3-bromo-1-[4-(5-methyl-1,3,4-thiadiazol-2-yl)phenyl]pyrazolo [3,4-d]pyrimidin-6-yl]amino]cyclopentyl]-3-hydroxy-3-methyl-cyclobutane-carboxamide]
13 | 25 to 200 | CNCc1cc(OC(F)(F)F)cc(-n2nc(Br)c3cnc(N[C@@H]4CCC(C)(C(=O)NC)C4)nc32)c1 (stereo partly drawn) [(3R)-3-[[3-bromo-1-[3-(methylaminomethyl)-5-(trifluoromethoxy)phenyl]pyrazolo[3,4-d]pyrimidin-6-yl]amino]-N,1-dimethyl-cyclopentanecarboxamide]
14 | 200 to 500 | CS(=O)(=O)CCNC(=O)[C@@H]1CC[C@@H](Nc2ncc3c(Br)nn(-c4cc(F)c5ncccc5c4)c3n2)C1 [(1R,3R)-3-((3-bromo-1-(8-fluoroquinolin-6-yl)-1H-pyrazolo[3,4-d]pyrimidin-6-yl)amino)-N-(2-(methylsulfonyl)ethyl)cyclo-pentane-1-carboxamide]
15 | 25 to 200 | CNC(=O)[C@]1(C)CC[C@@H](Nc2ncc3c(Br)nn(-c4ccc(-c5nnc(C)o5)nc4)c3n2)C1 [(1R,3R)-3-[[3-bromo-1-[6-(5-methyl-1,3,4-oxadiazol-2-yl)-3-pyridyl]pyrazolo [3,4-d]pyrimidin-6-yl]amino]-N,1-dimethyl-cyclopentanecarboxamide]
16 | 25 to 200 | CNC(=O)[C@]1(C)CC[C@@H](Nc2ncc3c(Br)nn(-c4ccc5ncc(OCCOC)cc5c4)c3n2)C1 [(1R,3R)-3-[[3-bromo-1-[3-(2-methoxy-ethoxy)-6-quinolyl]pyrazolo[3,4-d]pyrimidin-6-yl]amino]-N,1-dimethyl-cyclopentanecarboxamide]
17 | 25 to 200 | CNC(=O)[C@]1(C)CC[C@@H](Nc2ncc3c(Br)nn(-c4cc(C5(CN)CC5)c5ncccc5c4)c3n2)C1 [(1R,3R)-3-[[1-[8-[1-(aminomethyl)cyclo-propyl]-6-quinolyl]-3-bromo-pyrazolo [3,4-d]pyrimidin-6-yl]amino]-N,1-dimethyl-cyclopentanecarboxamide]
18 | 25 to 200 | CNC(=O)[C@]1(C)CC[C@@H](Nc2ncc3c(Br)nn(-c4cc(Cl)cc(C5CNC(=O)CO5)c4)c3n2)C1 (stereo partly drawn) [(1R,3R)-3-[[3-bromo-1-[3-chloro-5-(5-oxomorpholin-2-yl)phenyl]pyrazolo [3,4-d]pyrimidin-6-yl]amino]-N,1-dimethyl-cyclopentanecarboxamide]
19 | 25 to 200 | CC#CC(=O)NCCc1cc(-n2nc(Br)c3cnc(N[C@@H]4CC[C@@](C)(C(=O)NC)C4)nc32)cc2cccnc12 [(1R,3R)-3-[[3-bromo-1-[8-[2-(but-2-ynoylamino)ethyl]-6-quinolyl]pyrazolo [3,4-d]pyrimidin-6-yl]amino]-N,1-dimethyl-cyclopentanecarboxamide]
20 | < 25 | CN1CN(C(=O)C2(C)CC[C@@H](Nc3ncc4c(Br)nn(-c5cc(F)c6ncccc6c5)c4n3)C2)CC1=O (stereo partly drawn) [1-[(3R)-3-[[3-bromo-1-(8-fluoro-6-quinolyl)pyrazolo[3,4-d]pyrimidin-6-yl]amino]-1-methyl-cyclopentanecarbonyl]-3-methyl-imidazolidin-4-one]
21 | 25 to 200 | CNC(=O)[C@@H]1CC[C@@H](Nc2ncc3c(Br)nn(-c4cc(OC(F)(F)F)c5ncccc5c4)c3n2)C1 [(1R,3R)-3-((3-bromo-1-(8-(trifluoro-methoxy)quinolin-6-yl)-1H-pyrazolo [3,4-d]pyrimidin-6-yl)amino)-N-methylcyclopentane-1-carboxamide]
22 | 25 to 200 | CNC(=O)[C@]1(C(F)(F)F)CC[C@@H](Nc2ncc3c(Br)nn(-c4cc(F)c5ncccc5c4)c3n2)C1 [(1S,3R)-3-[[3-bromo-1-(8-fluoro-6-quinolyl)pyrazolo[3,4-d]pyrimidin-6-yl]amino]-N-methyl-1-(trifluoromethyl)cyclopentane-carboxamide]
23 | 25 to 200 | CNC(=O)[C@]1(C)CCC(Nc2ncc3c(Br)nn(-c4ccc5c(c4)CNC5=O)c3n2)C1 (stereo partly drawn) [(1R)-3-[[3-bromo-1-(1-oxoisoindolin-5-yl)pyrazolo[3,4-d]pyrimidin-6-yl]amino]-N,1-dimethyl-cyclopentanecarboxamide]
24 | 25 to 200 | CNC(=O)[C@]1(C)CC[C@@H](Nc2ncc3c(Br)nn(-c4ccc(C5=NCCO5)cc4)c3n2)C1 [(1R,3R)-3-[[3-bromo-1-[4-(4,5-dihydro-oxazol-2-yl)phenyl]pyrazolo[3,4-d]pyrimidin-6-yl]amino]-N,1-dimethyl-cyclopentanecarboxamide]
25 | 25 to 200 | CNC(=O)[C@]1(C)CC[C@@H](Nc2ncc3c(Br)nn(-c4ccc(-c5nnc(C(C)O)o5)cc4)c3n2)C1 (stereo partly drawn) [(1R,3R)-3-[[3-bromo-1-[4-[5-(1-hydroxy-ethyl)-1,3,4-oxadiazol-2-yl]phenyl]pyrazolo [3,4-d]pyrimidin-6-yl]amino]-N,1-dimethyl-cyclopentanecarboxamide]
26 | 25 to 200 | CN1CCN(C(=O)[C@@H]2CC[C@@H](Nc3ncc4c(Br)nn(-c5cc(F)c6ncccc6c5)c4n3)C2)CC1=O [4-((1R,3R)-3-((3-bromo-1-(8-fluoroquinolin-6-yl)-1H-pyrazolo[3,4-d]pyrimidin-6-yl)amino)cyclopentane-1-carbonyl)-1-methyl-piperazin-2-one]

Row | Structure (SMILES) | IC50 [nM]
27 | Cc1nnc(-c2ccc(-n3nc(Br)c4cnc(N[C@@H]5CCC(CN6CCOCC6)(C(=O)O)C5)nc43)cc2)s1 (stereo partly drawn) | 25 to 200
28 | CNC(=O)C1(C(C)C#N)CC[C@@H](Nc2ncc3c(Br)nn(-c4ccc(-c5nnc(C)s5)c(CCC#N)c4)c3n2)C1 (stereo partly drawn) | 25 to 200
29 | CNC(=O)[C@]1(C)CC[C@@H](Nc2ncc3c(Br)nn(-c4ccc5nc[nH]c(=O)c5c4)c3n2)C1 | 25 to 200
30 | CNC(=O)[C@]1(C)CC[C@@H](Nc2ncc3c(Br)nn(-c4cc(Cl)cc(C(C)O)c4)c3n2)C1 (stereo partly drawn) | < 25
